Test results taken from patent US7163939.
Where two headings read alike, the source gives them in different places.

Settings: rcm bond

Q: Which ring closure, isolated yield (from C=CCOc1ccc(Cl)cc1NC(=O)Nc1cnc(C#N)c(OCC=C)n1, 14-membered ring, Grubbs II (15 mol%), CH2Cl2, 1.8 mM, 40.0 °C, 16.0 h) does the source give for `N#Cc1ncc2nc1OCC=CCOc1ccc(Cl)cc1NC(=O)N2` here?
A: 54%

Q: With `Cc1cc(Cl)c2c(c1)NC(=O)Nc1cnc(C#N)c(n1)OCCC=CCO2` as the compound, how does the ring closure, isolated yield (from C=CCCOc1nc(NC(=O)Nc2cc(C)cc(Br)c2OCC=C)cnc1C#N, 15-membered ring, Grubbs II (10 mol%), CH2Cl2, 2.11 mM, 40.0 °C, 16.0 h) read?
A: 72%

Q: With `N#Cc1ncc2nc1OCCC=CCOc1ncc(Cl)cc1NC(=O)N2` as the compound, how does the ring closure, isolated yield (from C=CCCOc1nc(NC(=O)Nc2cc(Cl)cnc2OCC=C)cnc1C#N, 15-membered ring, Grubbs II (15 mol%), CH2Cl2, 2.75 mM, 40.0 °C, 16.0 h) read?
A: 36%

Q: For `CC1C=CCCOc2nc(cnc2C#N)NC(=O)Nc2cc(Cl)ccc2O1` (stereo not drawn), which ring closure, isolated yield (from C=CCCOc1nc(NC(=O)Nc2cc(Cl)ccc2OC(C)C=C)cnc1C#N, 15-membered ring, Grubbs II (10 mol%), CH2Cl2, 1.97 mM, 25.0 °C, 36.0 h) is on record?
A: 63%

Q: For `N#Cc1ncc2nc1OCCC=CCOc1c(F)cc(Cl)cc1NC(=O)N2`, which ring closure, isolated yield (from C=CCCOc1nc(NC(=O)Nc2cc(Br)cc(F)c2OCC=C)cnc1C#N, 15-membered ring, Grubbs II (10 mol%), CH2Cl2, 1.47 mM, 25.0 °C, 6.0 h) is on record?
A: 64%

Q: For `N#Cc1ncc2nc1OCCC=CCOc1cc(N)c(Cl)cc1NC(=O)N2`, which ring closure, isolated yield (from C=CCCOc1nc(NC(=O)Nc2cc(Cl)c(N)cc2OCC=C)cnc1C#N, 15-membered ring, Grubbs II (10 mol%), DMSO workup, CH2Cl2, 1.96 mM, 25.0 °C, 16.0 h) is on record?
A: 77%

Q: With `C[Si](C)(C)CCOCOc1cc2c(cc1Cl)NC(=O)Nc1cnc(C#N)c(n1)OCCC=CCO2` as the compound, how does the ring closure, isolated yield (from C=CCCOc1nc(NC(=O)Nc2cc(Cl)c(OCOCC[Si](C)(C)C)cc2OCC=C)cnc1C#N, 15-membered ring, Grubbs II (10 mol%), DMSO workup, CH2Cl2, 1.5 mM, 25.0 °C, 16.0 h) read?
A: 92%

Q: Which ring closure, isolated yield (15-membered ring) does the source give for “2-oxo-18-[3-(tetrahydro-2H-pyran-2-yloxy)propyl]-2,3,11,14-tetrahydro-1H,10H-8,4-epiazeno-9,15,1,3,6-benzodioxatriazacycloheptadecine-7-carbonitrile” here?
A: 37%

Q: Which ring closure, isolated yield (from C=CCCOc1cncc(NC(=O)Nc2cc(Cl)ccc2OCC=C)n1, 15-membered ring, Grubbs II (15 mol%), CH2Cl2, 2.4 mM, 50.0 °C, 16.0 h) does the source give for `O=C1Nc2cncc(n2)OCCC=CCOc2ccc(Cl)cc2N1` here?
A: 40%
